The values below come from patent US11440900B2, “Agricultural chemicals” (GLOBACHEM NV, priority 2018, dated 2022).

Holding throughout (type): cell-based
One test deals with Zymoseptoria tritici. As to the kind of experiment: Fungicidal activity screen in amended agar, 96 well plates, Zymoseptoria tritici. Conditions: 168 h, fungal growth vs DMSO control, 1% potato dextrose agar, 10,000 spores/ml, 20, 2, 0.2 and 0.02 ppm, 18° C., assessed after 7 days, read-out: Zymoseptoria EC50 ranking. How it is done: (§1) Compounds were screened in 96 well plates with 10 compounds per plate. Each compound was screened using agar amended to 20, 2, 0.2 and 0.02 ppm of the test material. Proline at 50 and 10 ppm and 0.2% DMSO were used respectively as positive and negative controls. Each test concentration and standard were tested twice on a plate.
(§2) Compounds were screened against the following three fungal pathogens—Botrytis cinerea, Alternaria alternata and Zymoseptoria tritici. The agar used in the test varied depending on the pathogen with Medium N used for B. cinerea and A. alternata and 1% potato dextrose agar for Z. tritici. For each pathogen sufficient spores were added to the appropriate agar to give 1,000 spores/ml agar of A. alternata, 5,000 spores/ml agar of B. cinerea and 10,000 spores/ml agar of Z. tritici.
(§3) A ×10 stock solution in 2% DMSO was produced for each dose i.e. 200, 20, 2 and 0.2 ppm, and 10 μl of this added to the appropriate wells on the plate. An equivalent amount of 2% DMSO and Proline stock at 500 and 100 ppm were added for the controls. To each well 90 μl of the appropriate agar spore suspension was added to give the final well concentrations outlined in the first paragraph.
(§4) Plates were incubated at room temperature (18° C.) and assessed after • a) 3 to 4 days A. alternata and B. cinerea • b) 7 days for Z. tritici
(§5) The amount of fungal growth in each well was compared to the DMSO controls and scored according to the following key • 0—no growth (100% control) • 1—growth reduced by 75% compared to DMSO control (25% growth) • 2—growth reduced by 50% compared to DMSO control (50% growth) • 3—growth reduced by 25% compared to DMSO control growth (75% growth) • 4—no reduction in growth compared to DMSO control growth (100% growth)
(§6) Those numbers were then used to give an EC50. The ranking in the table is: • A) EC50<20 ppm, B) EC50≥20ppm

For another test, the system named is Botrytis cinerea. As to the kind of experiment: Fungicidal activity screen in amended agar, 96 well plates, Botrytis cinerea. Conditions: fungal growth vs DMSO control, Medium N agar, 5,000 spores/ml, 20, 2, 0.2 and 0.02 ppm, 18° C., assessed after 3 to 4 days, read-out: Botrytis EC50 ranking. How it is done: as §1, §2, §3, §4, §5, §6
The next test relates to Alternaria alternata. As to the kind of experiment: Fungicidal activity screen in amended agar, 96 well plates, Alternaria alternata. The note with it: fungal growth vs DMSO control, Medium N agar, 1,000 spores/ml, 20, 2, 0.2 and 0.02 ppm, 18° C., assessed after 3 to 4 days, read-out: Alternaria EC50 ranking. How it is done:
as §1, §2, §3, §4, §5, §6

As usually defined, the EC50 is the concentration at which the effect is half-maximal. Regarding `Fc1ccc(-c2c(-n3nnc4cc(Cl)cc(F)c43)ccnc2Cl)c(Cl)c1` [Example 25], the EC50 in the test on Zymoseptoria tritici, with Botrytis cinerea and in the test with Alternaria alternata was less than 20 µg/mL in each case.
For the compound `Fc1ccc(-c2c(-n3cnc4cc(F)ccc43)cnnc2Cl)c(Cl)c1` [Example 27], the EC50 in the test on Zymoseptoria tritici was less than 20 µg/mL; in the test on Botrytis cinerea, less than 20 µg/mL; in the test with Alternaria alternata, no less than 20 µg/mL.
On to `Fc1ccc(-c2c(-n3cnc4cc(F)cc(F)c43)ccnc2Cl)c(Cl)c1` [Example 5], for which the EC50 in the test with Zymoseptoria tritici, with Botrytis cinerea and in the test on Alternaria alternata was less than 20 µg/mL throughout.
`COc1ccc(-c2c(-n3nnc4cc(Br)cc(F)c43)ccnc2Cl)c(Cl)c1` [Example 26]: the EC50 in the test on Zymoseptoria tritici is no less than 20 µg/mL; in the test on Botrytis cinerea it was less than 20 µg/mL; in the test with Alternaria alternata, no less than 20 µg/mL.
On to `C#CCOc1ccc2c(c1)ncn2-c1nccc(C)c1-c1ccc(F)cc1Cl` [Example 17], for which the EC50 with Zymoseptoria tritici, in the test on Botrytis cinerea and with Alternaria alternata was less than 20 µg/mL in each case.
Take `C#CCOc1ccc2c(c1)ncn2-c1ccnc(Cl)c1-c1ccc(F)cc1Cl` [Example 15]: the concentration for a half-maximal effect (EC50) in the test with Zymoseptoria tritici, in the test on Botrytis cinerea and in the test with Alternaria alternata was less than 20 µg/mL in each case.
With `Cc1cccc(-n2cnc3cc(F)cc(F)c32)c1-c1ccc(F)cc1Cl` [Example 6], the EC50 in the test with Zymoseptoria tritici, with Botrytis cinerea and in the test with Alternaria alternata was less than 20 µg/mL throughout.
`Cc1cccc(-n2cnc3cc(Cl)ccc32)c1-c1ccc(F)cc1Cl` [Example 9]: the EC50 in the test on Zymoseptoria tritici, in the test with Botrytis cinerea and with Alternaria alternata was less than 20 µg/mL in each case.
`COc1ccc(-c2c(C)ncnc2-n2nnc3cc(Cl)cc(F)c32)c(Cl)c1` [Example 22]: the results for the EC50 in the test with Zymoseptoria tritici, in the test with Botrytis cinerea and with Alternaria alternata were less than 20 µg/mL, less than 20 µg/mL and no less than 20 µg/mL, respectively.
Turning to `Cc1ncnc(-n2nnc3cc(Cl)cc(F)c32)c1-c1ccc(F)cc1Cl` [Example 21], the EC50 is less than 20 µg/mL with Zymoseptoria tritici, less than 20 µg/mL in the test with Botrytis cinerea and no less than 20 µg/mL with Alternaria alternata.
With `COc1ccc(-c2c(-n3nnc4cc(Cl)cc(F)c43)ccnc2Cl)c(Cl)c1` [Example 20, 5-Chloro-1-(2-chloro-3-(2-chloro-4-methoxyphenyl)pyridin-4-yl)-7-fluoro-1H-benzo[d][1,2,3]triazole], the EC50 in the test on Zymoseptoria tritici, in the test on Botrytis cinerea and in the test on Alternaria alternata was less than 20 µg/mL throughout.
Take `Cc1ccnc(-n2nnc3cc(Cl)cc(F)c32)c1-c1ccc(F)cc1Cl` [Example 23]: the EC50 in the test on Zymoseptoria tritici, in the test on Botrytis cinerea and in the test on Alternaria alternata was less than 20 µg/mL each time.
Turning to `COc1ccc(-c2c(C)ncnc2-n2cnc3cc(F)cc(F)c32)c(Cl)c1` [Example 2], the EC50 with Zymoseptoria tritici, in the test with Botrytis cinerea and in the test on Alternaria alternata was less than 20 µg/mL throughout.
For the compound `COc1ccc(-c2c(-n3cnc4cc(Br)cc(F)c43)ccnc2Cl)c(Cl)c1` [Example 18], the EC50 in the test with Zymoseptoria tritici, with Botrytis cinerea and in the test on Alternaria alternata was less than 20 µg/mL each time.
As to `COc1ccc(-c2c(C)ncnc2-n2cnc3cc(Cl)cc(F)c32)c(Cl)c1` [Example 11], the EC50 with Zymoseptoria tritici, in the test on Botrytis cinerea and in the test with Alternaria alternata was less than 20 µg/mL in each case.
Regarding `COc1cc(F)c(-c2c(C)ncnc2-n2cnc3cc(Cl)cc(F)c32)c(F)c1` [Example 19], the EC50 in the test with Zymoseptoria tritici, in the test with Botrytis cinerea and with Alternaria alternata was less than 20 µg/mL throughout.
As for `Cc1ncnc(-n2cnc3cc(F)cc(F)c32)c1-c1ccccc1Cl` [Example 3], the EC50 in the test on Zymoseptoria tritici, with Botrytis cinerea and in the test on Alternaria alternata was less than 20 µg/mL each time.
With `Cc1ccc2c(c1)ncn2-c1cccc(C)c1-c1ccc(F)cc1Cl` [Example 10], the EC50 in the test on Zymoseptoria tritici, with Botrytis cinerea and in the test on Alternaria alternata was less than 20 µg/mL in each case.
As for `Cc1ccnc(-n2cnc3cc(Cl)cc(F)c32)c1-c1ccc(F)cc1Cl` [Example 16], the EC50 with Zymoseptoria tritici, in the test on Botrytis cinerea and in the test on Alternaria alternata was less than 20 µg/mL in each case.
On to `COc1ccc(-c2c(-n3cnc4cc(Cl)cc(F)c43)ccnc2Cl)c(Cl)c1` [Example 13], for which the EC50 in the test with Zymoseptoria tritici, in the test on Botrytis cinerea and with Alternaria alternata was less than 20 µg/mL in each case.
Take `Cc1cccc(-n2cnc3ccccc32)c1-c1ccc(F)cc1Cl` [Example 8]: the EC50 in the test on Zymoseptoria tritici, in the test with Botrytis cinerea and in the test with Alternaria alternata was less than 20 µg/mL in each case.
For `Cc1ncnc(-n2cnc3cc(F)cc(F)c32)c1-c1ccc(F)cc1Cl` [Example 1, 1-(5-(2-Chloro-4-fluorophenyl)-6-methylpyrimidin-4-yl)-5,7-difluoro-1H-benzo[d]imidazole], the EC50 in the test with Zymoseptoria tritici, with Botrytis cinerea and with Alternaria alternata was less than 20 µg/mL throughout.
Take `Cc1ccnc(-n2cnc3cc(F)cc(F)c32)c1-c1ccc(F)cc1Cl` [Example 4]: the EC50 in the test with Zymoseptoria tritici, with Botrytis cinerea and in the test on Alternaria alternata was less than 20 µg/mL in each case.
As for `COc1ccc(-c2c(C)ccnc2-n2nnc3cc(Cl)cc(F)c32)c(Cl)c1` [Example 24], the EC50 with Zymoseptoria tritici is less than 20 µg/mL; in the test on Botrytis cinerea it was less than 20 µg/mL; in the test with Alternaria alternata, no less than 20 µg/mL.
As to `Cc1ncnc(-n2cnc3cc(Cl)cc(F)c32)c1-c1ccc(F)cc1Cl` [Example 12], the concentration for a half-maximal effect (EC50) in the test with Zymoseptoria tritici, with Botrytis cinerea and in the test with Alternaria alternata was less than 20 µg/mL in each case.
With `Fc1ccc(-c2c(-n3cnc4cc(Cl)cc(F)c43)ccnc2Cl)c(Cl)c1` [Example 14], the EC50 in the test on Zymoseptoria tritici, in the test on Botrytis cinerea and with Alternaria alternata was less than 20 µg/mL each time.
Consider `COc1cc(F)c(-c2c(C)cccc2-n2cnc3cc(F)cc(F)c32)c(F)c1` [Example 7], for which the EC50 with Zymoseptoria tritici, in the test with Botrytis cinerea and in the test with Alternaria alternata was less than 20 µg/mL throughout.
